Laboratory results as given in the kinase profiling compilation of Christmann-Franck et al. (2016).

How the values were obtained:
Experiment in all cases: radiometric filter-binding kinase assay, Kinase HotSpot
Settings in all cases: compound 0.5 µM; ATP 10 µM
[1] = molecular target: TEC (human) (UniProt P42680)
[2] = molecular target: RPS6KA5 KD2 (human) (UniProt O75582)
[3] = molecular target: ROCK2 (human) (UniProt O75116)
[4] = molecular target: INSRR (human) (UniProt P14616)
[5] = molecular target: JAK3 JH1 JH2 (human) (UniProt P52333)
[6] = molecular target: CAMK2A (human) (UniProt Q9UQM7)
[7] = molecular target: PASK (human) (UniProt Q96RG2)
[8] = molecular target: GRK6 (human) (UniProt P43250)
[9] = molecular target: PRKD1 (human) (UniProt Q15139)
[10] = molecular target: NEK9 (human) (UniProt Q8TD19)
[11] = molecular target: MARK3 (human) (UniProt P27448)
[12] = molecular target: SGK2 (human) (UniProt Q9HBY8)
[13] = molecular target: FGFR1 (human) (UniProt P11362)
[14] = molecular target: PRKACA (human) (UniProt P17612)
[15] = molecular target: MAPK14 (human) (UniProt Q16539)
[16] = molecular target: WNK3 (human) (UniProt Q9BYP7)
[17] = molecular target: CAMK2G (human) (UniProt Q13555)
[18] = molecular target: CSNK1D (human) (UniProt P48730)
[19] = molecular target: MLTK (human) (UniProt Q9NYL2)
[20] = molecular target: CSF1R (human) (UniProt P07333)
[21] = molecular target: MAPK10 (human) (UniProt P53779)
[22] = molecular target: RPS6KA6 KD1 KD2 (human) (UniProt Q9UK32)
[23] = molecular target: DYRK4 (human) (UniProt Q9NR20)
[24] = molecular target: PRKCA (human) (UniProt P17252)
[25] = molecular target: HIPK1 (human) (UniProt Q86Z02)
[26] = molecular target: STK11 (human) (UniProt Q15831)
[27] = molecular target: PDPK1 (human) (UniProt O15530)
[28] = molecular target: MAP3K14 (human) (UniProt Q99558)
[29] = molecular target: NEK3 (human) (UniProt P51956)
[30] = molecular target: PTK2B (human) (UniProt Q14289)
[31] = molecular target: ULK1 (human) (UniProt O75385)
[32] = molecular target: SGK3 (human) (UniProt Q96BR1)
[33] = molecular target: KDR (human) (UniProt P35968)
[34] = molecular target: NEK11 (human) (UniProt Q8NG66)
[35] = molecular target: MYLK (human) (UniProt Q15746)
[36] = molecular target: CDK6 CCND3 (human) (UniProt P30281+Q00534)
[37] = molecular target: MAP3K2 (human) (UniProt Q9Y2U5)
[38] = molecular target: CDK2 CCNE1 (human) (UniProt P24941+P24864)
[39] = molecular target: EPHA5 (human) (UniProt P54756)
[40] = molecular target: STK16 (human) (UniProt O75716)
[41] = molecular target: MAPK11 (human) (UniProt Q15759)
[42] = molecular target: PIM1 (human) (UniProt P11309)
PIM1 (human), sequence (P11309 whole entry, looked up): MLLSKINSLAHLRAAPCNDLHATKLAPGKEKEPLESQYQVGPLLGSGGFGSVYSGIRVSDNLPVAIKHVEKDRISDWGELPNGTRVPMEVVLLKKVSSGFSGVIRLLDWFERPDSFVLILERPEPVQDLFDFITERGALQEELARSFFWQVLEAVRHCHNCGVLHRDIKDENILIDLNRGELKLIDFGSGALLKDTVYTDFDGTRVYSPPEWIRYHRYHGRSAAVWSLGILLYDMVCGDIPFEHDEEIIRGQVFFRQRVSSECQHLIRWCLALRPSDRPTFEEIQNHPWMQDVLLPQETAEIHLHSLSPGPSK

JAK3 JH1 JH2 (human), sequence (P52333 whole entry, looked up): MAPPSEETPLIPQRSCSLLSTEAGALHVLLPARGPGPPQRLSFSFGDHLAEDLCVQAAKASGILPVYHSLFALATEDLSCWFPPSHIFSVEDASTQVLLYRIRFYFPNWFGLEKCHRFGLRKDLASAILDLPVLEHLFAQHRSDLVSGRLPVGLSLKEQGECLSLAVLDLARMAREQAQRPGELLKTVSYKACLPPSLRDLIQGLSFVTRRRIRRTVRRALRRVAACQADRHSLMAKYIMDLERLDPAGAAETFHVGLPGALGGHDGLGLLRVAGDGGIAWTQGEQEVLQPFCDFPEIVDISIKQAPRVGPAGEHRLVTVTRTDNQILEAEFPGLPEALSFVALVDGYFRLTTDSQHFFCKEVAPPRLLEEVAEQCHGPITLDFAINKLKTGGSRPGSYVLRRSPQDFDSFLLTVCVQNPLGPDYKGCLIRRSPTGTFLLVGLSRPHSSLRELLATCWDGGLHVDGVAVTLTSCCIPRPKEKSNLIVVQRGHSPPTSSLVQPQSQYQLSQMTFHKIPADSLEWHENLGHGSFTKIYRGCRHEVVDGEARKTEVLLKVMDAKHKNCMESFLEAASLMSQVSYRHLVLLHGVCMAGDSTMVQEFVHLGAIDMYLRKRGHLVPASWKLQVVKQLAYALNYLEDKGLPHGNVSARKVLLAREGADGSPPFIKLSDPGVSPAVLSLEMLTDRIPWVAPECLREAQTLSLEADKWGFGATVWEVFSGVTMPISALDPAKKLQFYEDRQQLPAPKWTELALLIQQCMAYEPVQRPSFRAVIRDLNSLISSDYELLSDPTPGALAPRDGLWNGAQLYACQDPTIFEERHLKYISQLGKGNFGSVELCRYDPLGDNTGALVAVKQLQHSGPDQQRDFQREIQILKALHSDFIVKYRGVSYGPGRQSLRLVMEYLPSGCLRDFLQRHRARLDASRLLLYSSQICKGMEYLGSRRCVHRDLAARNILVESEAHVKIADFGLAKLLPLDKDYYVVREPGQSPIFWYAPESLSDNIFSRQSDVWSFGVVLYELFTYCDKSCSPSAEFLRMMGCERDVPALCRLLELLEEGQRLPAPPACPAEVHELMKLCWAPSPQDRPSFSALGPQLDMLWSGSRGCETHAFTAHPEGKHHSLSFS
MARK3 (human), sequence (P27448 whole entry, looked up): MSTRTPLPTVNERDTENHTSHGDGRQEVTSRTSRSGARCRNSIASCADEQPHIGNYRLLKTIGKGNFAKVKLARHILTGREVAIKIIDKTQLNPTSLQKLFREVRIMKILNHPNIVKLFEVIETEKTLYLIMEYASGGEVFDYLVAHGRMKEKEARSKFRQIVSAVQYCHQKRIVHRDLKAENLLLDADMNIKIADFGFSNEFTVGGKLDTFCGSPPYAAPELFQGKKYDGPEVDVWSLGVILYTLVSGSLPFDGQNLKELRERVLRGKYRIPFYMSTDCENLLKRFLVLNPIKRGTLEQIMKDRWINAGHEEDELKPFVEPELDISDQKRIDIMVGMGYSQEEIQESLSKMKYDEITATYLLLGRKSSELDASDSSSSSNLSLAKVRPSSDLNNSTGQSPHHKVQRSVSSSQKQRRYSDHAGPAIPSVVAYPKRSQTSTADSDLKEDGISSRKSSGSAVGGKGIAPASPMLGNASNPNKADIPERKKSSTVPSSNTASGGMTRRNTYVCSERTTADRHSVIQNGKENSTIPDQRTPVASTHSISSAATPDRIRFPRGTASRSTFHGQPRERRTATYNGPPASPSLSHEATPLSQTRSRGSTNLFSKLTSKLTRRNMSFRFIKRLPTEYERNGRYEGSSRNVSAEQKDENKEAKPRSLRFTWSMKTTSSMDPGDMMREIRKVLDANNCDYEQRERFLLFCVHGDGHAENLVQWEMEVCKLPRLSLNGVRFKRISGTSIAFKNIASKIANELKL
CAMK2G (human), sequence (Q13555 whole entry, looked up): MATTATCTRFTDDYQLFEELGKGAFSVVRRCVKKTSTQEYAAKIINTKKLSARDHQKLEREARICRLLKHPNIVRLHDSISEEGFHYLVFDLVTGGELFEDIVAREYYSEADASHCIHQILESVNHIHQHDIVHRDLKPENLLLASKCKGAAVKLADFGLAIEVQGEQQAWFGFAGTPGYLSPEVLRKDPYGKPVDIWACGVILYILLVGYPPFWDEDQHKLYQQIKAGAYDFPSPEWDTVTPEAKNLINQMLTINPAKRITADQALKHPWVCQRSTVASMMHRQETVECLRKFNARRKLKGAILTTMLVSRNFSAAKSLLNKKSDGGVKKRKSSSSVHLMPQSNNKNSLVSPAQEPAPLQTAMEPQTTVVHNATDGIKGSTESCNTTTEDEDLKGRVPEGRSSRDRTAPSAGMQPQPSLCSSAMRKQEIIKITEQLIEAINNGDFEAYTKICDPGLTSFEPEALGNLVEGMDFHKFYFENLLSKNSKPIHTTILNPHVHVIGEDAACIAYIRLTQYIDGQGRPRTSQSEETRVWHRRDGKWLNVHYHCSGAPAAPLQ
INSRR (human), sequence (P14616 whole entry, looked up): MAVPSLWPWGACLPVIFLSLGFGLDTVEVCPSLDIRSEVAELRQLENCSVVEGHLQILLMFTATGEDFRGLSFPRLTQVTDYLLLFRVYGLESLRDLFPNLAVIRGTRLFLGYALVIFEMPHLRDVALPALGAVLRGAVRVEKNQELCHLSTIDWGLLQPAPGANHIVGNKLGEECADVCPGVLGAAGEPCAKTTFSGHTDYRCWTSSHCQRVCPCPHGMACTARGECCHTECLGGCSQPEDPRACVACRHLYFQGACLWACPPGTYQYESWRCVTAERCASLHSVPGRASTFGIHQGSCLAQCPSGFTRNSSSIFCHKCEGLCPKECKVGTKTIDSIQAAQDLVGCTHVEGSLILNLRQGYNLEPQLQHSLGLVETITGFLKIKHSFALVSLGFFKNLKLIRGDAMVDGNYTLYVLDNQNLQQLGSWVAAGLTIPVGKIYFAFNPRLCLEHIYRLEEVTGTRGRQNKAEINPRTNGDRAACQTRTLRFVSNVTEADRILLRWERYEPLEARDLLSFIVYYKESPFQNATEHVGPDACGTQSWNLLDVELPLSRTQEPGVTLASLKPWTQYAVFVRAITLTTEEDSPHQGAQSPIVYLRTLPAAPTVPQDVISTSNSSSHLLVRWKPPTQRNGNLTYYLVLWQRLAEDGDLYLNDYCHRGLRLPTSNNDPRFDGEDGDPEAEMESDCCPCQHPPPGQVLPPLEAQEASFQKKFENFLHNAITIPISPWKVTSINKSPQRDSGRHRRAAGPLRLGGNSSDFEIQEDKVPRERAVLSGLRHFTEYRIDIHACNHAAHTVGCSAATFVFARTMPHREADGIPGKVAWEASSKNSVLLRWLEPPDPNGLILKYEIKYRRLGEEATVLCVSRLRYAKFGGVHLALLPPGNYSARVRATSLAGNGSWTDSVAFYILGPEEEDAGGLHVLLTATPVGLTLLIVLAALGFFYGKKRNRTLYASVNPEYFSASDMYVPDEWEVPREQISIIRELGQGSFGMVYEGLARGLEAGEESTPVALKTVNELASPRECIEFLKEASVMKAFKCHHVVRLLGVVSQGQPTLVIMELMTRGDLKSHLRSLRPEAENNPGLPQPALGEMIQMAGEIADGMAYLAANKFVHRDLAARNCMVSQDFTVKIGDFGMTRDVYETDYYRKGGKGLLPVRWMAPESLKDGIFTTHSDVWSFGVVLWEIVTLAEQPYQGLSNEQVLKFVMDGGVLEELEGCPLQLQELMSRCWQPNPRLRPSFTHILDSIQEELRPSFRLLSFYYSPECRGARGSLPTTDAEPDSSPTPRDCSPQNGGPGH
MAP3K14 (human), sequence (Q99558 whole entry, looked up): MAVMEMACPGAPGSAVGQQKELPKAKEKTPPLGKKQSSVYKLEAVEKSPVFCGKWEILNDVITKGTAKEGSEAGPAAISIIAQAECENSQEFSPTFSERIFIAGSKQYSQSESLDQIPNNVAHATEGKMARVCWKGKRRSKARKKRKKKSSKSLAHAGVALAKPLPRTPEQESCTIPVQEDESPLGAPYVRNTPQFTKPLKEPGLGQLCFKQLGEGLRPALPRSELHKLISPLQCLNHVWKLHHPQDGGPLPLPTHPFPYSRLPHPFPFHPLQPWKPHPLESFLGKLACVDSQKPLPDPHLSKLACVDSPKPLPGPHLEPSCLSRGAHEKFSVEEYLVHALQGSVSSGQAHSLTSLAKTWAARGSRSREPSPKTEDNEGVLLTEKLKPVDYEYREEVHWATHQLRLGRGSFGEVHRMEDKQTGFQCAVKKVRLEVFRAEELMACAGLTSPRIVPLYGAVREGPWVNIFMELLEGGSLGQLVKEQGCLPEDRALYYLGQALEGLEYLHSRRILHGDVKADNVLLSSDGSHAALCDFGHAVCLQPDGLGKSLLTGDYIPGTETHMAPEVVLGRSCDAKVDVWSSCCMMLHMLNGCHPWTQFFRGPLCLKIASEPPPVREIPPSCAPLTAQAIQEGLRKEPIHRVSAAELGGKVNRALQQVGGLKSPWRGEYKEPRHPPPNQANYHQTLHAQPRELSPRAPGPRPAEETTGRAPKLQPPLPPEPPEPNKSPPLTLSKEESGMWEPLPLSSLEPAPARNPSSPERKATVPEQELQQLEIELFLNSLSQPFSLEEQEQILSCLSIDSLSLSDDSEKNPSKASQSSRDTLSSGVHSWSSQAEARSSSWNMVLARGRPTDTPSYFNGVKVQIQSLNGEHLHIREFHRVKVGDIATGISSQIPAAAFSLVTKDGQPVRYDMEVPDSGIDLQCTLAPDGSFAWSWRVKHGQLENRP

## COc1cccc(-c2cc(=O)c3ccccc3o2)c1N
[1]
  residual activity: 99.2%
[2]
  residual activity: 96.4%
[3]
  residual activity: 91.5%
[4]
  residual activity: 98.4%
[5]
  residual activity: 96.9%
[6]
  residual activity: 93.6%
[7]
  residual activity: 86.1%
[8]
  residual activity: 90.7%
[9]
  residual activity: 103%
[10]
  residual activity: 102%
[11]
  residual activity: 86.7%
[12]
  residual activity: 95.9%
[13]
  residual activity: 96.8%
[14]
  residual activity: 87.7%
[15]
  residual activity: 76.2%
[16]
  residual activity: 96.3%
[17]
  residual activity: 96.6%
[18]
  residual activity: 99.1%
[19]
  residual activity: 103%
[20]
  residual activity: 101%
[21]
  residual activity: 85.7%
[22]
  residual activity: 95.2%
[23]
  residual activity: 108%
[24]
  residual activity: 102%
[25]
  residual activity: 104%
[26]
  residual activity: 101%
[27]
  residual activity: 98.3%
[28]
  residual activity: 108%
[29]
  residual activity: 102%
[30]
  residual activity: 91.2%
[31]
  residual activity: 104%
[32]
  residual activity: 101%
[33]
  residual activity: 81.3%
[34]
  residual activity: 92.9%
[35]
  residual activity: 98.9%
[36]
  residual activity: 99.3%
[37]
  residual activity: 103%
[38]
  residual activity: 95.3%
[39]
  residual activity: 97.9%
[40]
  residual activity: 95.4%
[41]
  residual activity: 108%
[42]
  residual activity: 93.9%
